Values quoted from earlier work as cited in article PMC3466449 (Scientific Reports, 2012).
Non-standard residues stand in square brackets, D forms with d. No end group written: not given here. pGlu = O=C1CC[C@@H](C(=O)O)N1

Test system: C-domain of sACE
Conditions: C-domain over N-domain of sACE

[pGlu]GLPPRPKIPP [BPPb, bradykinin potentiating peptide b]
C-domain selectivity: about 260 fold

O=C(N[C@@H](Cc1ccccc1)P(=O)(O)C1CCCC1C(=O)N[C@@H](Cc1c[nH]c2ccccc12)C(=O)O)OCc1ccccc1 (some centres unmarked) [RXPA380]
C-domain selectivity: approximately 3000 fold
